The values that follow come from ChEMBL document CHEMBL3045153, “Screening of flavonoids for antitubercular activity and their structureactivity relationships” (2013).

≈ marks a conversion by molar mass, not a printed value. Calls of active or inactive are those of the source. No cut-off for these calls is given here.

One experiment relates to Mycobacterium tuberculosis. Briefly: Antitubercular activity against Mycobacterium tuberculosis H37Rv ATCC 27294 at 100 ug/ml measured every 24 hr by BACTEC 460 radiometric assay.
Details: not given
Format: functional, organism-based.
Take `C[C@@H]1O[C@@H](OC[C@H]2O[C@@H](Oc3c(-c4ccc(O)c(O)c4)oc4cc(O)cc(O)c4c3=O)[C@H](O)[C@@H](O)[C@@H]2O)[C@H](O)[C@H](O)[C@H]1O`: the result was inactive.

Regarding `O=c1cc(-c2ccccc2)oc2cc(O)cc(O)c12`, the result was inactive.

`COc1c(O)cc2oc(-c3ccccc3)cc(=O)c2c1O`: the result was inactive.

In the case of `COc1ccc(-c2oc3cc(OC)c(OC)c(O)c3c(=O)c2OC)cc1O`, the result was inactive.

Turning to `COc1ccc([C@@H]2CC(=O)c3c(O)cc(O[C@@H]4O[C@H](CO[C@@H]5O[C@@H](C)[C@H](O)[C@@H](O)[C@H]5O)[C@@H](O)[C@H](O)[C@H]4O)cc3O2)cc1O`, the result was inactive. With `C[C@H]1O[C@H](Oc2c(-c3ccc(O)cc3)oc3cc(O)cc(O)c3c2=O)[C@@H](O)[C@@H](O)[C@@H]1O`, the result was inactive. The same measure, in the same setting: the same measure for `O=c1c(O)c(-c2ccccc2)oc2cc(O)cc(O)c12`: “inactive”; for `O=c1cc(-c2ccc(O)cc2)oc2cc(OC3O[C@H](CO)[C@@H](O)[C@H](O)[C@H]3O)cc(O)c12` (some centres not stated): “inactive”; for `O=c1cc(-c2ccc(O)cc2)oc2cc(O)cc(O)c12`: “inactive”. Regarding `O=c1c(O)c(-c2ccc(O)cc2)oc2cc(O)cc(O)c12`, the outcome was inactive.

A further experiment has as its system Mycobacterium tuberculosis. As to the kind of experiment: Antitubercular activity against Mycobacterium tuberculosis H37Rv ATCC 27294 measured every 24 hr by BACTEC 460 radiometric assay. Format: functional. The note with it: H37Rv ATCC 27294, 24 h.
Usually MIC stands for the lowest concentration found to suppress growth. A low value points to a more susceptible organism. The molecule `O=c1cc(-c2ccc(O)c(O)c2)oc2cc(O)cc(O)c12` [LUTEOLIN] gave an MIC of 25 µg/mL (≈ 87.3 µM).

Molecule `O=c1cc(-c2ccccc2)oc2cc(O)c(O)c(O)c12` [BAICALEIN] showed an MIC of 50 µg/mL (≈ 185 µM). Same read-out and setting: the same measure for `CO[C@H]1/C=C/O[C@@]2(C)Oc3c(C)c(O)c4c(O)c(c(/C=N/N5CCN(C)CC5)c(O)c4c3C2=O)NC(=O)/C(C)=C\C=C\[C@H](C)[C@H](O)[C@@H](C)[C@@H](O)[C@@H](C)[C@H](OC(C)=O)[C@@H]1C` [RIFAMPIN]: 2 µg/mL (≈ 2.43 µM); for `O=c1c(O)c(-c2cc(O)c(O)c(O)c2)oc2cc(O)cc(O)c12` [MYRICETIN]: 50 µg/mL (≈ 157 µM); for `COc1c(O)cc2oc(-c3ccc(O)cc3)cc(=O)c2c1O` [HISPIDULIN]: 100 µg/mL (≈ 333 µM). `CN[C@@H]1[C@H](O[C@H]2[C@H](O[C@H]3[C@H](O)[C@@H](O)[C@H](N=C(N)N)[C@@H](O)[C@@H]3N=C(N)N)O[C@@H](C)[C@]2(O)C=O)O[C@@H](CO)[C@H](O)[C@H]1O` [STREPTOMYCIN] registered an MIC of 2 µg/mL (≈ 3.44 µM). This MIC lies about 50-fold lower than the previous one. On the same count and under the same terms, the same measure for `O=c1c(O)c(-c2ccc(O)c(O)c2)oc2cc(O)cc(O)c12` [QUERCETIN]: 50 µg/mL (≈ 165 µM).
